According to patent US7834042B2, “Angiotensin II receptor antagonists” (Merck Sharp & Dohme Corp., priority 2006, dated 2010):

Test: Reactive nitrogen species (RNS) after oral dosing of fasted rats, diaminonapthalene derivitization (DAN) assay
Format: in vivo, Sprague-Dawley (SD) rats
Conditions: fasted SD rats, 40 mpk PO
Method: The dinitrate compounds of the invention provide enhanced NO release over mononitrate analogs. While mononitrate compounds orally dosed to rats result in reactive nitrite species circulating in plasma with maximal concentration in the 0.5-2.8 μM range, similar dosing of compounds of the present invention result in an unexpectedly large increase in circulating nitrite concentrations. A consideration of stoichiometry leads to an expectation of a doubling of nitrite levels. Compounds of the invention, however, provide a nitrite level increase more than two fold.
Biochemical evidence for the generation of NO in vivo in response to test compound administration was obtained from studies in Sprague-Dawley (SD) rats. Administration of test compound to fasted SD rats (40 mpk, PO) results in the appearance of reactive nitrogen species (RNS), assessed using the diaminonapthalene derivitization (DAN) assay. Compounds 1-2 as numbered and identified in Table 1 below were tested.

SMILES | RNS levels (Time 0 h, in µM) | RNS levels (Time 1 h, in µM) | RNS levels (Time 3 h, in µM) | RNS levels (Time 6 h, in µM) | RNS levels (Time 24 h, in µM) | RNS levels (result in words) (Compounds 1-2 compared) | RNS levels (Time 0 h) | RNS levels (Time 1 h) | RNS levels (Time 3 h) | RNS levels (Time 6 h)
CCCCc1nc(Cl)c(COC(=O)CCCO[N+](=O)[O-])n1Cc1ccc(-c2ccccc2-c2nnn[nH]2)cc1 [Compound 1, reference compound] | 0.7 ± 0.12 | 1.1 ± 0.22 | 1.1 ± 0.26 | 1.1 ± 0.34 | 1.7 ± 0.15 |  |  |  |  | 
CCCCc1nc(Cl)c(COC(=O)CCC[C@@H](CO[N+](=O)[O-])O[N+](=O)[O-])n1Cc1ccc(-c2ccccc2-c2nnn[nH]2)cc1 [Compound 2] |  |  |  |  | 0.5 ± 0.26 | improved RNS levels | 0.6 ± 0.11 | 9.8 ± 3.8 | 3.1 ± 2.48 | 2.1 ± 1.65
